These results are taken from patent publication US20260317312A1, “ISOXAZOLIDINES AS RIPK1 INHIBITORS AND USE THEREOF” (GENZYME CORPORATION, priority 2023, published 2026).

pIC50: −log10 of the molar value.

Assay [1] has as its target T1, hRIPK1 (aa 1-375) fusion protein (Homo sapiens, UniProt Q13546).
T1 construct: hRIPK1 (aa 1-375) fusion protein
T1 sequence (Q13546 1-375): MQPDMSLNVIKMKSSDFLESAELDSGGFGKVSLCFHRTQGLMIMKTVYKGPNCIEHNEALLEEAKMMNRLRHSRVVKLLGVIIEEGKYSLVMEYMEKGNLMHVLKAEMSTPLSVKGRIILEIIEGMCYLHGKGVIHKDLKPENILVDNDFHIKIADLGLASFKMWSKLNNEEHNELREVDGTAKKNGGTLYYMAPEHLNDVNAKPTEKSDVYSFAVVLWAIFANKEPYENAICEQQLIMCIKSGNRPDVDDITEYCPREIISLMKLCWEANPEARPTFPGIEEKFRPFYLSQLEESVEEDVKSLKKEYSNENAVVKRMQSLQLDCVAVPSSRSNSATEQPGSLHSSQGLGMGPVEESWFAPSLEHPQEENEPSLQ
The assay is described as follows: Receptor-Interacting Protein Kinase 1 inhibition, ADP Glo assay (conversion of ATP to ADP due to autophosphorylation). Type of assay: biochemical. The conditions noted are these: ATP 50 μM, 30 min preincubation, 240 min incubation, room temperature, DMSO 1%. Put shortly: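 The readout was ADP-Glo luminescence after a 240 min rt autophosphorylation reaction with 50 μM ATP, following 30 min preincubation of 3.6 μg/ml hRIPK1 (aa 1-375) fusion with compound at 33300-1.69 nM final in 1% DMSO. Values came from Levenberg-Marquardt nonlinear fits.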
For orientation: In ADP-Glo the light output rises with the ADP produced.

The next assay relates to U937 cells. The assay is described as follows: Cellular assay in U937 cells to measure activity of RIPK1-inhibitors on cell death (necroptosis). It counts as cell-based. The conditions noted are these: overnight (18 to 24 hrs), 37° C., MTS readout.
Where [2] appears, read: Homo sapiens, U-937, TNFα/zVAD.fmk induced cell death (necroptosis).
Where [3] appears, read: TNFα/zVAD.fmk induced cell death (necroptosis).

As for `NC(=O)c1cc(OC[C@H]2CC[C@H](C(=O)N3OCC[C@H]3c3cc(F)cc(F)c3)CC2)ncn1` [Compound 47, trans-6-((4-((S)-3-(3,5-difluorophenyl)isoxazolidine-2-carbonyl)cyclohexyl)methoxy)pyrimidine-4-carboxamide], the pIC50 in assay [1] is 7.30; with U937 cells (setting [2]) it was 7.68.

As to `N#Cc1cc(F)cc([C@@H]2CCON2C(=O)[C@H]2CC[C@@H](Oc3ccc(F)c(C#N)c3)CC2)c1` [Compound 82, cis-5-((4-((S)-3-(3-cyano-5-fluorophenyl)isoxazolidine-2-carbonyl)cyclohexyl)oxy)-2-fluorobenzonitrile], the values for the negative logarithm of the IC50 (pIC50) (in assay [1]; with U937 cells (setting [2])) were 7.36 and 6.41, respectively.

Consider `NC(=O)c1ccnc(N[C@H]2C[C@@H](C(=O)N3OCC[C@H]3c3cc(F)cc(F)c3)C2)n1` [Compound 1, cis-2-((3-((S)-3-(3,5-difluorophenyl)isoxazolidine-2-carbonyl)cyclobutyl)amino)pyrimidine-4-carboxamide], for which the pIC50 in assay [1] is 7.72; in the assay on U937 cells (setting [2]), 7.47.

As for `Cn1ccn(-c2ccc(OC[C@H]3CC[C@H](C(=O)N4OCC[C@H]4c4cc(F)cc(F)c4)CC3)c(F)c2)c1=O` [Compound 68, trans-1-(4-((4-((S)-3-(3,5-difluorophenyl)isoxazolidine-2-carbonyl)cyclohexyl)methoxy)-3-fluorophenyl)-3-methyl-1,3-dihydro-2H-imidazol-2-one], the values for the pIC50 (in assay [1]; in the assay on U937 cells (setting [2])) were 7.72 and 8.10, respectively.

`NS(=O)(=O)c1cccc(OC[C@H]2CC[C@H](C(=O)N3OCC[C@H]3c3cc(F)cc(F)c3)CC2)c1` [Compound 66, trans-3-((4-((S)-3-(3,5-difluorophenyl)isoxazolidine-2-carbonyl)cyclohexyl)methoxy)benzenesulfonamide]: the pIC50 in assay [1] was 7.46; with U937 cells (setting [2]) it was 8.10.

As for `NC(=O)c1cc(OCC2CCC(C(=O)N3OCC[C@H]3c3cc(F)cc(F)c3)C2)ncn1` (single isomer, unassigned; stereoisomer 2) [Compound 119], the negative logarithm of the IC50 (pIC50) was 7.54 in assay [1] and 6.41 in the assay on U937 cells (setting [3]).

Consider `N#Cc1cc(O[C@H]2C[C@@H](C(=O)N3OCC[C@H]3c3cc(F)cc(F)c3)C2)ccc1F` [Compound 65, cis-5-(3-((S)-3-(3,5-difluorophenyl)isoxazolidine-2-carbonyl)cyclobutoxy)-2-fluorobenzonitrile], for which the pIC50 was 7.74 in assay [1] and 7.31 in the assay with U937 cells (setting [2]).

As to `CC1(C)OC(=O)N(c2ccc(F)c(OC[C@H]3CC[C@H](C(=O)N4OCC[C@H]4c4cc(F)cc(F)c4)CC3)c2)C1=O` [Compound 59, trans-3-(3-((4-((S)-3-(3,5-difluorophenyl)isoxazolidine-2-carbonyl)cyclohexyl)methoxy)-4-fluorophenyl)-5,5-dimethyloxazolidine-2,4-dione], the pIC50 in assay [1] was 7.54; in the assay on U937 cells (setting [2]), 7.52.

`N#Cc1cc(F)cc(NC[C@H]2CC[C@H](C(=O)N3OCC[C@H]3c3cc(F)cc(C#N)c3)CC2)c1` [Compound 38, trans-3-((S)-2-(4-(((3-cyano-5-fluorophenyl)amino)methyl)cyclohexane-1-carbonyl)isoxazolidin-3-yl)-5-fluorobenzonitrile]: the pIC50 was 7.57 in assay [1] and 7.66 in the assay with U937 cells (setting [2]).

In the case of `NC(=O)c1cc(OCC2CCC(C(=O)N3OCC[C@H]3c3cc(F)cc(F)c3)C2)ncn1` (single isomer, unassigned; stereoisomer 1) [Compound 118], the results for the pIC50 (in assay [1]; in the assay with U937 cells (setting [3])) were 7.70 and 6.86, respectively.

Take `Cn1ccn(-c2ccc(OC[C@H]3CC[C@H](C(=O)N4OCC[C@H]4c4cncc(C#N)c4)CC3)c(F)c2)c1=O` [Compound 89, trans-5-((S)-2-(4-((2-fluoro-4-(3-methyl-2-oxo-2,3-dihydro-1H-imidazol-1-yl)phenoxy)methyl)cyclohexane-1-carbonyl)isoxazolidin-3-yl)nicotinonitrile]: the values for the pIC50 (in assay [1]; with U937 cells (setting [2])) were 7.74 and 7.89, respectively.

Consider `N#Cc1cc(F)cc([C@@H]2CCON2C(=O)[C@H]2C[C@@H](Nc3cc(C#N)ncn3)C2)c1` [Compound 20, cis-6-((3-((S)-3-(3-cyano-5-fluorophenyl)isoxazolidine-2-carbonyl)cyclobutyl)amino)pyrimidine-4-carbonitrile], for which the results for the negative-log IC50 (pIC50) (in assay [1]; in the assay on U937 cells (setting [2])) were 7.16 and 6.09, respectively.

For the compound `N#Cc1cc(F)cc(O[C@H]2C[C@@H](C(=O)N3OCC[C@H]3c3cc(F)cc(F)c3)C2)c1` [Compound 61, cis-3-(3-((S)-3-(3,5-difluorophenyl)isoxazolidine-2-carbonyl)cyclobutoxy)-5-fluorobenzonitrile], the pIC50 in assay [1] was 7.27; with U937 cells (setting [2]) it was 6.90.

Consider `N#Cc1ccnc(NC[C@H]2CC[C@H](C(=O)N3OCC[C@H]3c3ccc(Cl)cc3)CC2)n1` [Compound 14, trans-2-(((4-((S)-3-(4-chlorophenyl)isoxazolidine-2-carbonyl)cyclohexyl)methyl)amino)pyrimidine-4-carbonitrile], for which the pIC50 in assay [1] is 7.48; in the assay with U937 cells (setting [2]), 6.30.

For the compound `CN1CC(=O)N(c2ccc(Cl)c(OC[C@H]3CC[C@H](C(=O)N4OCC[C@H]4c4cncc(C#N)c4)CC3)c2)C1=O` [Compound 88, trans-5-((S)-2-(4-((2-chloro-5-(3-methyl-2,5-dioxoimidazolidin-1-yl)phenoxy)methyl)cyclohexane-1-carbonyl)isoxazolidin-3-yl)nicotinonitrile], the negative logarithm of the IC50 (pIC50) in assay [1] was 7.33; with U937 cells (setting [2]) it was 6.34.

For the compound `N#Cc1cc(F)cc([C@@H]2CCON2C(=O)[C@H]2CC[C@H](CNc3cc(C#N)ncn3)CC2)c1` [Compound 30, trans-6-(((4-((S)-3-(3-cyano-5-fluorophenyl)isoxazolidine-2-carbonyl)cyclohexyl)methyl)amino)pyrimidine-4-carbonitrile], the results for the pIC50 (in assay [1]; in the assay with U937 cells (setting [2])) were 7.23 and 6.58, respectively.

`N#Cc1cc(F)cc([C@@H]2CCON2C(=O)[C@H]2C[C@@H](n3cnc4cc(F)ccc43)C2)c1` [Compound 70, cis-3-fluoro-5-((S)-2-(3-(5-fluoro-1H-benzo[d]imidazol-1-yl)cyclobutane-1-carbonyl)isoxazolidin-3-yl)benzonitrile]: the figures for the pIC50 (in assay [1]; in the assay with U937 cells (setting [2])) were 7.41 and 6.46, respectively.

On to `N#Cc1cc(F)cc([C@@H]2CCON2C(=O)C2CCCC(COc3cc(C(N)=O)ncn3)CC2)c1` (single isomer, unassigned) [Compound 128], for which the pIC50 was 7.70 in assay [1] and 6.16 with U937 cells (setting [3]).

With `O=C([C@H]1C[C@H](n2ncc3cc(F)ccc32)C1)N1OCC[C@H]1c1cc(F)cc(F)c1` [Compound 97, trans-[(3S)-3-(3,5-difluorophenyl)isoxazolidin-2-yl]-[3-(5-fluoroindazol-1-yl)cyclobutyl]methanone], the negative-log IC50 (pIC50) in assay [1] is 7.42; in the assay on U937 cells (setting [2]), 6.82.

With `Cn1ccc2c(NC[C@H]3CC[C@H](C(=O)N4OCC[C@H]4c4cc(F)cc(C#N)c4)CC3)ncnc21` [Compound 31, trans-3-fluoro-5-((S)-2-(4-(((7-methyl-7H-pyrrolo[2,3-d]pyrimidin-4-yl)amino)methyl)cyclohexane-1-carbonyl)isoxazolidin-3-yl)benzonitrile], the pIC50 in assay [1] was 6.96; in the assay on U937 cells (setting [2]), 6.43.

For `Cc1nnc(C)n1-c1ccc(F)c(OC[C@H]2CC[C@H](C(=O)N3OCC[C@H]3c3cc(F)cc(F)c3)CC2)c1` [Compound 64, trans-((S)-3-(3,5-difluorophenyl)isoxazolidin-2-yl)(4-((5-(3,5-dimethyl-4H-1,2,4-triazol-4-yl)-2-fluorophenoxy)methyl)cyclohexyl)methanone], the figures for the pIC50 (in assay [1]; in the assay with U937 cells (setting [2])) were 7.25 and 6.28, respectively.

For `N#Cc1cc(F)cc([C@@H]2CCON2C(=O)C2CCC(COc3cc(C(N)=O)ncn3)C2)c1` (single isomer, unassigned; stereoisomer 2) [Compound 116], the pIC50 is 7.64 in assay [1] and 6.42 in the assay on U937 cells (setting [3]).

As to `O=C([C@H]1C[C@@H](n2cnc3cc(F)ccc32)C1)N1OCC[C@H]1c1cc(F)cc(F)c1` [Compound 69, cis-((S)-3-(3,5-difluorophenyl)isoxazolidin-2-yl)(3-(5-fluoro-1H-benzo[d]imidazol-1-yl)cyclobutyl)methanone], the pIC50 was 7.59 in assay [1] and 7.46 in the assay on U937 cells (setting [2]).

For `CC1(C)OC(=O)N(c2ccc(F)c(OC[C@H]3CC[C@H](C(=O)N4OCC[C@H]4c4cncc(C#N)c4)CC3)c2)C1=O` [Compound 92, trans-5-((S)-2-(4-((5-(5,5-dimethyl-2,4-dioxooxazolidin-3-yl)-2-fluorophenoxy)methyl)cyclohexane-1-carbonyl)isoxazolidin-3-yl)nicotinonitrile], the negative logarithm of the IC50 (pIC50) was 7.38 in assay [1] and 6.64 in the assay with U937 cells (setting [2]).

Take `N#Cc1cc(F)cc([C@@H]2CCON2C(=O)[C@H]2C[C@H](n3ncc4cc(F)ccc43)C2)c1` [Compound 98, trans-3-fluoro-5-[(3S)-2-[3-(5-fluoroindazol-1-yl)cyclobutanecarbonyl]isoxazolidin-3-yl]benzonitrile]: the figures for the pIC50 (in assay [1]; in the assay on U937 cells (setting [2])) were 7.39 and 6.44, respectively.

The pIC50 is the negative decadic logarithm of the IC50, by convention in mol/L. Read a high pIC50 as a small IC50.
